The subject of experiment [1] is L428, a Hodgkin's lymphoma cell line expressing low to moderate levels of CD30. Kind of experiment: In vitro cytotoxicity assay (CellTiter-Glo) on L428. Format: cell-based, human. The settings on record: CD30 LO L428 cells, 4 days, up to 20 μg/ml.
Procedure: For this, cells were plated on 96-well plates in 100 μl RPMI/10% FCS at a density of 10^4 cells per well and grown at 37° C. in a humidified incubator at 5% CO2 atmosphere. After one day incubation, 25 μl medium was carefully removed from each well and replaced by 25 μl of 3.5-fold serial dilutions of each ADC in growth medium, resulting in final ADC concentrations ranging from 20 μg/ml to 0.25 ng/ml. Each dilution was done in duplicate. After 4 additional days, plates were removed from the incubator and equilibrated to room temperature. After approximately 30 minutes, 100 μl CellTiter-Glo® Luminescent Solution (Promega, Cat. No G7570) was added to each well and, after shaking the plates at 450 rpm for 5 min followed by a 10 min incubation without shaking, luminescence was measured on a Tecan Infinity F200 with an integration time of 1 second per well.
Cells were incubated with serial dilutions of ADCs for 4 days, after which CellTiter-Glo® Luminescent Solution (Promega) was added and viable cells were quantified by measuring the luminescence on a Tecan Infinity F200.
The subject of experiment [2] is ovarian (A2780) cancer cell line. As to conditions: A2780, WO2012/073217; cited from earlier work.
Experiment [3] deals with breast cancer (MCF7) cell line. The settings on record: MCF7, WO2012/073217; cited from earlier work.

For cAc10-PNU-EDA-Gly5, in experiment [1], the “cell killing (in words)” value is recorded as “only at higher concentrations, similar to the control ADCs employed”. With Adcetris, in experiment [1], the “cell killing (in words)” value is recorded as “inefficient at killing”. Turning to `COc1cccc2c1C(=O)c1c(O)c3c(c(O)c1C2=O)C[C@@](O)(C(=O)CO)C[C@@H]3O[C@H]1C[C@H]2[C@H](O[C@@H]3[C@@H](OC)OCCN32)[C@H](C)O1` [PNU-159682], the “potency for in vitro cell killing” value in experiment [2] and in experiment [3] was “pico- to femtomolar range” in each case.
